Key:
Assay type in all cases: cell-based
[1] = target: T1, hGPR17L-A131T (Homo sapiens, UniProt Q13304, A131T); experiment: GloSensor stimulatory cAMP assay with pertussis toxin pretreatment
T1 construct: expressed in transfected cells; host or cells: HEK293 (ATCC CRL-1573), transient transfection
Description: (§1) For agonist-mediated stimulatory cAMP assays, HEK293 cells were seeded and transfected as noted above. Cells were treated with 100 ng/ml pertussis toxin overnight (Sigma-Aldrich P2980). Twenty-four hours posttransfection, growth medium and transfection mix were aspirated and replaced with 100 μl/well equilibration medium (2% Promega GloSensor cAMP reagent [E1291; Promega Corporation] in CO2-independent medium) containing 100 ng/ml pertussis toxin and incubated at room temperature for 2 h. Baseline luminescence was read every 2 min on a Molecular Devices SpectraMax iD5 plate reader (Molecular Devices) at ambient room temperature for 8 min. Subsequently, 10 μl/well MDL29,951 diluted in assay buffer (HBSS, 20 mM HEPES, pH 7.2) was added and luminescence was read every 2 min for 16 min. Within each well, the luminescence values for each time point were normalized to their average baseline luminescence values. The average luminescence values for the time points between 8 and 16 min after MDL29,951 addition were expressed as a percentage of the maximum response observed for hGPR17L-WT.

[2] = target: T2, hGPR17L-F43L (Homo sapiens, UniProt Q13304, F43L); experiment: as above
T2 construct: expressed in transfected cells; host or cells: HEK293 (ATCC CRL-1573), transient transfection
Description: as §1

[3] = target: T3, hGPR17L-R301H (Homo sapiens, UniProt Q13304, R301H); experiment: as above
T3 construct: expressed in transfected cells; host or cells: HEK293 (ATCC CRL-1573)
Description: as §1

[4] = target: T4, hGPR17L-G354V (Homo sapiens, UniProt Q13304, G354V); experiment: as above
T4 construct: expressed in transfected cells; host or cells: HEK293 (ATCC CRL-1573)
Description: as §1

[5] = target: T5, hGPR17L-R248Q (Homo sapiens, UniProt Q13304, R248Q); experiment: as above
T5 construct: expressed in transfected cells; host or cells: HEK293 (ATCC CRL-1573), transient transfection
Description: as §1

[6] = target: T6, hGPR17L-V103M (Homo sapiens, UniProt Q13304, V103M); experiment: as above
T6 construct: expressed in transfected cells; host or cells: HEK293 (ATCC CRL-1573), transient transfection
Description: as §1

[7] = target: T3, hGPR17L-R301H; experiment: Calcium flux assay
Description: (§2) HEK293 cells were seeded at 20,000 cells/well into black, optical bottom, poly-D-lysine coated 96-well plates. The following day, cells were transiently transfected with pcDNA3-HA-hGPR17L or pcDNA3-HA-hGPR17L-variants using lipofectamine 3000. Twenty-four hours after transfection, the growth medium and transfection mix were decanted and 100 μl/well assay buffer (HBSS, 20 mM HEPES, pH 7.2) and 100 μl/well Calcium 6 loading dye (R8190; Molecular Devices) were added to the plate and incubated at 37 °C, 5% CO2 for 1 h 45 min. Plate was allowed to equilibrate to room temperature on the bench top for 30 min. MDL29,951 diluted in assay buffer was added to the wells and fluorescence (485 nm excitation, 525 nm emission, and 515 nm automatic emission cutoff) was measured using a Molecular Devices FlexStation3 (Molecular Devices). For experiments with pertussis toxin, cells were pretreated with 100 ng/ml pertussis toxin overnight and 100 ng/ml pertussis toxin was included with Calcium 6 loading dye for calcium flux assays.

[8] = target: T7, hGPR17L-D105N (Homo sapiens, UniProt Q13304, D105N); experiment: Calcium flux assay
T7 construct: expressed in transfected cells; host or cells: HEK293 (ATCC CRL-1573), transient transfection
Description: as §2

[9] = target: T4, hGPR17L-G354V; experiment: Calcium flux assay
Description: as §2

[10] = target: T6, hGPR17L-V103M; experiment: Calcium flux assay
Description: as §2

[11] = target: T8, hGPR17L-R248Q-Tango (Homo sapiens, UniProt Q13304, R248Q); experiment: Tango β-arrestin recruitment assay
T8 construct: Tango fusion module; host or cells: HTLA (HEK293T-derived)
Description: (§3) HTLA cells were seeded at 10,000 cells/well into white, opaque, poly-D-lysine-coated 96-well plates and transfected with hGPR17L-WT-Tango or hGPR17L-variant-Tango plasmids the following day using lipofectamine 3000 according to the manufacturer's protocol. The next day, cells were incubated at 37 °C and 5% CO2 in serum-free growth media for a 4 h serum starvation. MDL29,951 was then diluted in assay buffer (HBSS, 20 mM HEPES, pH 7.2), added to the cells, and incubated for 16 h at 37 °C and 5% CO2. Drug treatment was decanted and 80 μl/well of Promega Bright-Glo reagent (diluted 20× in assay buffer) (E2610; Promega Corporation) was added and incubated at room temperature for 15 min. Luminescence (1 s per well integration time) was read on a Molecular Devices SpectraMax iD5 plate reader.

[12] = target: T9, hGPR17L-G136S-Tango (Homo sapiens, UniProt Q13304, G136S); experiment: Tango β-arrestin recruitment assay; conditions: HTLA cells, 30 μM MDL29,951
T9 construct: Tango fusion module; host or cells: HTLA (HEK293T-derived)
Description: as §3

[13] = target: T10, hGPR17L-V103M-Tango (Homo sapiens, UniProt Q13304, V103M); experiment: Tango β-arrestin recruitment assay
T10 construct: Tango fusion module; host or cells: HTLA (HEK293T-derived)
Description: as §3

[14] = target: T11, hGPR17L-F43L-Tango (Homo sapiens, UniProt Q13304, F43L); experiment: Tango β-arrestin recruitment assay
T11 construct: Tango fusion module; host or cells: HTLA (HEK293T-derived)
Description: as §3

[15] = target: T12, hGPR17L-A131T-Tango (Homo sapiens, UniProt Q13304, A131T); experiment: Tango β-arrestin recruitment assay
T12 construct: Tango fusion module; host or cells: HTLA (HEK293T-derived)
Description: as §3

[16] = read-out: Stimulatory cAMP EC50
[17] = read-out: Ca2+ EC50, HEK293, calcium mobilization
[18] = read-out: β-arrestin recruitment EC50, HTLA cells

T5 sequence (Q13304 whole entry R248Q): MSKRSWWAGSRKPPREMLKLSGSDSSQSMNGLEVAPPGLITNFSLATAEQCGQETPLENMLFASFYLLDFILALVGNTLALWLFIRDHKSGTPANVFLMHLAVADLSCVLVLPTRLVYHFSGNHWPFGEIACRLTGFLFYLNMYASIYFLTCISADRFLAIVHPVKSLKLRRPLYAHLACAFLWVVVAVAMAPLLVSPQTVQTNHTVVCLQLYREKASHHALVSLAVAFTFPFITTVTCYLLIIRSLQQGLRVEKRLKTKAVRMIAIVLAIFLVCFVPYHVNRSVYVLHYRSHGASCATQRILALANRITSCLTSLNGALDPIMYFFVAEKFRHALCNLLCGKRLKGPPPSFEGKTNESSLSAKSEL
T8 sequence (Q13304 whole entry R248Q, the tested form may be a part): as the sequence (Q13304 whole entry R248Q) above
T3 sequence (Q13304 whole entry R301H): as the sequence (Q13304 whole entry R248Q) above, with Q248R, R301H counted along it
T4 sequence (Q13304 whole entry G354V): as the sequence (Q13304 whole entry R248Q) above, with Q248R, G354V counted along it
T2 sequence (Q13304 whole entry F43L): as the sequence (Q13304 whole entry R248Q) above, with F43L, Q248R counted along it
T11 sequence (Q13304 whole entry F43L, the tested form may be a part): as the sequence (Q13304 whole entry R248Q) above, with F43L, Q248R counted along it
T7 sequence (Q13304 whole entry D105N): as the sequence (Q13304 whole entry R248Q) above, with D105N, Q248R counted along it
T1 sequence (Q13304 whole entry A131T): as the sequence (Q13304 whole entry R248Q) above, with A131T, Q248R counted along it
T12 sequence (Q13304 whole entry A131T, the tested form may be a part): as the sequence (Q13304 whole entry R248Q) above, with A131T, Q248R counted along it
T6 sequence (Q13304 whole entry V103M): as the sequence (Q13304 whole entry R248Q) above, with V103M, Q248R counted along it
T10 sequence (Q13304 whole entry V103M, the tested form may be a part): as the sequence (Q13304 whole entry R248Q) above, with V103M, Q248R counted along it
T9 sequence (Q13304 whole entry G136S, the tested form may be a part): as the sequence (Q13304 whole entry R248Q) above, with G136S, Q248R counted along it

Q: Which results are given for `O=C(O)CCc1c(C(=O)O)[nH]c2cc(Cl)cc(Cl)c12` [MDL29,951]?
A: Stimulatory cAMP pEC50 ± SEM [1]: 4.72 ± 0.05; loss of potency, fold shift in EC50 vs hGPR17L-WT (stimulatory cAMP) [1]: 3–7 fold; Stimulatory cAMP Efficacy (% of WT Emax) ([1]; hGPR17L-A131T, HEK293, 100 ng/ml pertussis toxin overnight): 105 ± 21 % of WT Emax; EC50 [1, 16]: 19000 nM; Stimulatory cAMP pEC50 ± SEM [2]: 5.21 ± 0.13; Stimulatory cAMP Efficacy (% of WT Emax) ([2]; hGPR17L-F43L, HEK293, 100 ng/ml pertussis toxin overnight): 99 ± 20 % of WT Emax; EC50 [2, 16]: 6200 nM; Stimulatory cAMP pEC50 ± SEM [3]: 4.84 ± 0.12; Stimulatory cAMP Efficacy (% of WT Emax) ([3]; hGPR17L-R301H, HEK293, 100 ng/ml pertussis toxin overnight): 68 ± 11 % of WT Emax; EC50 [3, 16]: 16000 nM; Stimulatory cAMP pEC50 ± SEM [4]: 4.88 ± 0.12; Stimulatory cAMP Efficacy (% of WT Emax) ([4]; hGPR17L-G354V, HEK293, 100 ng/ml pertussis toxin overnight): 105 ± 23 % of WT Emax; EC50 [4, 16]: 14000 nM; Stimulatory cAMP pEC50 ± SEM [5]: 5.22 ± 0.01; Stimulatory cAMP Efficacy (% of WT Emax) ([5]; hGPR17L-R248Q, HEK293, 100 ng/ml pertussis toxin overnight): 41 ± 1.7 % of WT Emax; EC50 [5, 16]: 6100 nM; Stimulatory cAMP pEC50 ± SEM [6]: 4.33 ± 0.36; loss of potency, fold shift in EC50 vs hGPR17L-WT (stimulatory cAMP) [6]: 3–7 fold; Stimulatory cAMP Efficacy (% of WT Emax) ([6]; hGPR17L-V103M, HEK293, 100 ng/ml pertussis toxin overnight): 150 ± 48 % of WT Emax; EC50 [6, 16]: 47000 nM; Ca2+ Efficacy (% of WT Emax) ([7]; HEK293): 85 ± 3.6 % of WT Emax; Ca2+ pEC50 ± SEM ([7]; HEK293, calcium mobilization): 6.74 ± 0.14; EC50 [7, 17]: 180 nM; calcium mobilization in the presence of pertussis toxin [8]: reduced calcium mobilization; fold less potent calcium response vs hGPR17L-WT ([8]; hGPR17L-D105N): 6–7 fold; reduction of efficacy of calcium response vs hGPR17L-WT ([8]; hGPR17L-D105N): approximately 70%; Ca2+ Efficacy (% of WT Emax) ([8]; hGPR17L-D105N, HEK293): 28 ± 4.5 % of WT Emax; Ca2+ pEC50 ± SEM ([8]; hGPR17L-D105N, HEK293, calcium mobilization): 6.21 ± 0.11; EC50 ([8]; read-out: Ca2+ EC50, hGPR17L-D105N, HEK293, calcium mobilization): 620 nM; Ca2+ Efficacy (% of WT Emax) ([9]; HEK293): 92 ± 2.6 % of WT Emax; Ca2+ pEC50 ± SEM ([9]; HEK293, calcium mobilization): 7.05 ± 0.29; EC50 [9, 17]: 89 nM; Ca2+ Efficacy (% of WT Emax) ([10]; HEK293): 119 ± 8.4 % of WT Emax; Ca2+ pEC50 ± SEM ([10]; HEK293, calcium mobilization): 6.66 ± 0.09; EC50 [10, 17]: 220 nM; β-arrestin recruitment Efficacy (% of WT span) ([11]; HTLA cells): 73 ± 16 % of WT span; β-arrestin recruitment pEC50 ± SEM ([11]; HTLA cells): 7.55 ± 0.16; EC50 [11, 18]: 28 nM; agonist-stimulated β-arrestin recruitment [12]: only a modest response; β-arrestin recruitment Efficacy (% of WT span) ([13]; HTLA cells): 84 ± 13 % of WT span; β-arrestin recruitment pEC50 ± SEM ([13]; HTLA cells): 6.69 ± 0.05; EC50 [13, 18]: 210 nM; β-arrestin recruitment Efficacy (% of WT span) ([14]; HTLA cells): 61 ± 13 % of WT span; β-arrestin recruitment pEC50 ± SEM ([14]; HTLA cells): 7.08 ± 0.03; EC50 [14, 18]: 83 nM; β-arrestin recruitment Efficacy (% of WT span) ([15]; HTLA cells): 97 ± 5.2 % of WT span; β-arrestin recruitment pEC50 ± SEM ([15]; HTLA cells): 6.55 ± 0.06; EC50 [15, 18]: 280 nM

Source: article PMC8267566, “Human GPR17 missense variants identified in metabolic disease patients have distinct downstream signaling profiles” (The Journal of Biological Chemistry, 2021)
